# Assay results as given in patent US9340577B2, “HLA binding motifs and peptides and their uses” (priority 1992, dated 2016).
# No end group written: not given here.
# What was measured:
# Experiment in all cases: biochemical
# Format in all cases: binding
# HLA-A11 (A*1101) = HLA-A11 (A*1101) (Homo sapiens, UniProt P04439, A114D/D185E/E176A/F33Y/L180Q/S129P/T187R)
# A*6801 = A*6801 (Homo sapiens, UniProt P04439, A269V/D185E/E176V/E277Q/E87N/F33Y/G231S/I121M/I166T/I218V/L180W/L300P/L318F/N151K/P208A/P217A/Q86R/R169H/T345S)
# A31 (A*3101) = A31 (A*3101) (Homo sapiens, UniProt P04439, A270S/D185E/E176V/E277Q/F33T/G231S/G80R/H175R/I121M/I218V/I322F/K168Q/L300P/L318F/M331R/P217A/Q94H/R138Q/T323A/T345S/T97I/V358M)
# HLA-A3.2 (A*0301) = HLA-A3.2 (A*0301) (Homo sapiens, UniProt P04439)
# A*3301 = A*3301 (Homo sapiens, UniProt P04439, A270S/D185E/E176V/E277Q/E87N/F33T/G231S/H175R/I121M/I218V/I322F/K168Q/K210R/L300P/L318F/M331R/P217A/Q86R/Q94H/R138Q/T323A/T345S/T97I/V358M/Y195H)
molecule,measurement,setting,value
CTELKLVYR [Peptide 78.0334],IC50,HLA-A11 (A*1101),> 20 µM
same,IC50,A*6801,1.33 µM
same,IC50,A31 (A*3101),0.064 µM
same,IC50,HLA-A3.2 (A*0301),> 20 µM
RLIDRIRER [Peptide 9017.0123],IC50,HLA-A11 (A*1101),0.137 µM
same,IC50,A*3301,0.937 µM
same,IC50,A31 (A*3101),0.0046 µM
same,IC50,HLA-A3.2 (A*0301),0.036 µM
AQVLHVLKRK [Peptide 88.0141],IC50,HLA-A11 (A*1101),0.104 µM
same,IC50,A*6801,15.8 µM
same,IC50,A*3301,> 20 µM
same,IC50,HLA-A3.2 (A*0301),0.161 µM
QQMNMCQWIK [Peptide 88.0186],IC50,HLA-A11 (A*1101),0.02 µM
same,IC50,A*6801,0.197 µM
same,IC50,A*3301,13.1 µM
same,IC50,HLA-A3.2 (A*0301),0.346 µM
LLLIRFRCSK [Peptide 88.0164],IC50,HLA-A11 (A*1101),6.98 µM
same,IC50,A*6801,0.732 µM
same,IC50,A*3301,> 20 µM
same,IC50,HLA-A3.2 (A*0301),0.205 µM
CC[C@H](C)[C@H](N)C(=O)N[C@@H](CO)C(=O)N[C@@H](Cc1ccccc1)C(=O)N[C@@H](C)C(=O)NCC(=O)N[C@H](C(=O)N[C@H](C(=O)N[C@H](C(=O)N[C@@H](CCCCN)C(=O)O)[C@@H](C)O)C(C)C)[C@@H](C)CC [Peptide 1589.17],IC50,HLA-A11 (A*1101),0.0095 µM
same,IC50,A*6801,0.031 µM
same,IC50,A*3301,4.37 µM
same,IC50,HLA-A3.2 (A*0301),0.033 µM
VVPALSVSK [Peptide 1589.14],IC50,HLA-A11 (A*1101),0.033 µM
same,IC50,A*3301,> 20 µM
same,IC50,A31 (A*3101),> 20 µM
same,IC50,HLA-A3.2 (A*0301),0.515 µM
STWHWTSDNK [Peptide 1589.22],IC50,HLA-A11 (A*1101),0.017 µM
same,IC50,A*6801,0.018 µM
same,IC50,A*3301,> 20 µM
same,IC50,HLA-A3.2 (A*0301),0.161 µM
RTLTLLSVTK [Peptide 1556.13],IC50,HLA-A11 (A*1101),0.015 µM
same,IC50,A*6801,0.219 µM
same,IC50,A*3301,6.76 µM
same,IC50,HLA-A3.2 (A*0301),0.023 µM
NTKATLLYK [Peptide 88.0385],IC50,HLA-A11 (A*1101),0.109 µM
same,IC50,A*3301,0.168 µM
same,IC50,A31 (A*3101),3.82 µM
same,IC50,HLA-A3.2 (A*0301),0.396 µM
WTIVYIEYRK [Peptide 9017.0243],IC50,HLA-A11 (A*1101),0.037 µM
same,IC50,A*6801,0.00094 µM
same,IC50,A31 (A*3101),1.35 µM
same,IC50,HLA-A3.2 (A*0301),4.89 µM
KTLEERVKK [Peptide 78.0294],IC50,HLA-A11 (A*1101),0.16 µM
same,IC50,A*6801,> 20 µM
same,IC50,A*3301,> 20 µM
same,IC50,HLA-A3.2 (A*0301),0.302 µM
LNKMFCQLAR [Peptide 1556.49],IC50,HLA-A11 (A*1101),8.88 µM
same,IC50,A*6801,1.8 µM
same,IC50,HLA-A3.2 (A*0301),11.1 µM
VTYHSETQR [Peptide 1589.10],IC50,HLA-A11 (A*1101),0.022 µM
same,IC50,A*6801,0.032 µM
same,IC50,A31 (A*3101),0.066 µM
same,IC50,HLA-A3.2 (A*0301),0.029 µM
LQQLLFIHFR [Peptide 9017.0241],IC50,HLA-A11 (A*1101),0.058 µM
same,IC50,A*6801,0.081 µM
same,IC50,A31 (A*3101),0.0013 µM
same,IC50,HLA-A3.2 (A*0301),2.49 µM
VVFGILIKRK [Peptide 9012.0246],IC50,HLA-A11 (A*1101),0.013 µM
same,IC50,A*3301,10.1 µM
same,IC50,A31 (A*3101),2.6 µM
same,IC50,HLA-A3.2 (A*0301),0.054 µM
RVHSSHLK [Peptide 1556.72],IC50,HLA-A11 (A*1101),0.013 µM
same,IC50,A*6801,1.63 µM
same,IC50,A31 (A*3101),0.483 µM
same,IC50,HLA-A3.2 (A*0301),0.144 µM
TVDVYMIMVK [Peptide 9012.0257],IC50,HLA-A11 (A*1101),0.095 µM
same,IC50,A*3301,> 20 µM
same,IC50,A31 (A*3101),> 20 µM
same,IC50,HLA-A3.2 (A*0301),11.1 µM
VTVYDGVPVWR [Peptide 1525.08],IC50,HLA-A11 (A*1101),0.246 µM
same,IC50,A*6801,0.059 µM
same,IC50,A*3301,5.72 µM
same,IC50,HLA-A3.2 (A*0301),7.84 µM
GVEFISFLR [Peptide 1587.55],IC50,HLA-A11 (A*1101),0.44 µM
same,IC50,A*6801,0.048 µM
same,IC50,A31 (A*3101),0.124 µM
same,IC50,HLA-A3.2 (A*0301),> 20 µM
SLYGKTLEER [Peptide 78.0142],IC50,HLA-A11 (A*1101),1.73 µM
same,IC50,A*6801,0.178 µM
same,IC50,A*3301,5.5 µM
same,IC50,HLA-A3.2 (A*0301),0.056 µM
TVRHKKLMFK [Peptide 1556.79],IC50,HLA-A11 (A*1101),0.188 µM
same,IC50,A*3301,11.8 µM
same,IC50,A31 (A*3101),5.1 µM
same,IC50,HLA-A3.2 (A*0301),0.44 µM
ALTALIKPK [Peptide 9017.0098],IC50,HLA-A11 (A*1101),0.019 µM
same,IC50,A*6801,6.02 µM
same,IC50,A*3301,> 20 µM
same,IC50,HLA-A3.2 (A*0301),0.024 µM
IVGWPAVRER [Peptide 9017.0186],IC50,HLA-A11 (A*1101),1.17 µM
same,IC50,A*6801,0.081 µM
same,IC50,A31 (A*3101),0.11 µM
same,IC50,HLA-A3.2 (A*0301),0.63 µM
FAFTDLTIVY [Peptide 78.0103],IC50,HLA-A11 (A*1101),> 20 µM
same,IC50,A*3301,> 20 µM
same,IC50,A31 (A*3101),> 20 µM
same,IC50,HLA-A3.2 (A*0301),> 20 µM
STWHWTSDDK [Peptide 1589.43],IC50,HLA-A11 (A*1101),0.047 µM
same,IC50,A*3301,> 20 µM
same,IC50,A31 (A*3101),5.3 µM
same,IC50,HLA-A3.2 (A*0301),0.342 µM
VVYRLVWDK [Peptide 1589.38],IC50,HLA-A11 (A*1101),0.013 µM
same,IC50,A*3301,3.78 µM
same,IC50,A31 (A*3101),0.989 µM
same,IC50,HLA-A3.2 (A*0301),0.063 µM
AAFDLSFFLK [Peptide 9017.0189],IC50,HLA-A11 (A*1101),0.0023 µM
same,IC50,A*6801,0.0019 µM
same,IC50,A31 (A*3101),0.13 µM
same,IC50,HLA-A3.2 (A*0301),0.009 µM
FTAFLGAFK [Peptide 88.0362],IC50,HLA-A11 (A*1101),0.0038 µM
same,IC50,A*6801,0.0054 µM
same,IC50,A*3301,0.071 µM
same,IC50,HLA-A3.2 (A*0301),0.031 µM
LVKMFCQLAK [Peptide 1556.50],IC50,HLA-A11 (A*1101),0.189 µM
same,IC50,A*6801,0.221 µM
same,IC50,A31 (A*3101),3.34 µM
same,IC50,HLA-A3.2 (A*0301),1.2 µM
RTHSSHLKSKK [Peptide 1556.76],IC50,HLA-A11 (A*1101),0.0098 µM
same,IC50,A*6801,1.36 µM
same,IC50,A*3301,10.7 µM
same,IC50,HLA-A3.2 (A*0301),0.059 µM
FLGAFKKFLK [Peptide 88.0169],IC50,HLA-A11 (A*1101),0.0096 µM
same,IC50,A*6801,0.275 µM
same,IC50,A31 (A*3101),0.011 µM
same,IC50,HLA-A3.2 (A*0301),0.0033 µM
